Experiments:
Type in all cases: biochemical, Aloe barbadensis
AbCGT [1] = assay: Effects of pH, temperature and divalent metal ions on AbCGT activity (phloretin 17 + UDP-Glc)
AbCGT [2] = target: T1, AbCGT (Aloe vera, UniProt A0A7G9P699); assay: Kinetic parameters of AbCGT (wild type); details: acceptor varied, saturating UDP-Glc, pH 7.4, 30 °C
Method: The reactions terminated by the addition of 200 μL of ice-cold methanol. Subsequently, samples were centrifuged at 15,000 × g for 30 min to collect the supernatant, and aliquots were analyzed by HPLC as described above. All experiments were performed in triplicate. The value of Km was calculated with the method of Lineweaver–Burk plot.

AbCGT [3] = target: T1, AbCGT; assay: Glycosyltransferase activity assay, purified AbCGT (wild type) with aglycon acceptors and UDP-Glc; details: aglycon acceptor with UDP-Glc, pH 7.4, 30 °C, up to 12 h; Reaction-1 to -3
AbCGT [4] = assay: Effects of pH, temperature and divalent metal ions on AbCGT activity (phloretin 17 + UDP-Glc); remark: listed apart in the source
Method: To assay for the optimal reaction temperature, the reaction mixtures were incubated at pH 11.0 and different temperatures (15–60 °C). To test the necessity of divalent metal ions for AbCGT, BaCl2, CaCl2, CoCl2, CuCl2, FeCl2, MgCl2, MnCl2, ZnCl2, and EDTA were used individually at a final concentration of 5 mM. […] For quantification, three parallel assays were routinely carried out.

[5] = pH 5.0, citric acid-sodium citrate buffer, reaction-1
[6] = pH 6.0, Na2HPO4-NaH2PO4 buffer, reaction-2
[7] = pH 5.0, citric acid-sodium citrate buffer, reaction-2
[8] = pH 5.0, citric acid-sodium citrate buffer, reaction-3
[9] = pH 6.0, Na2HPO4-NaH2PO4 buffer, reaction-1
[10] = pH 6.0, Na2HPO4-NaH2PO4 buffer, reaction-3
[11] = pH 6.0, citric acid-sodium citrate buffer, reaction-1
[12] = pH 6.0, citric acid-sodium citrate buffer, reaction-2
[13] = pH 6.0, citric acid-sodium citrate buffer, reaction-3
[14] = pH 7.0, Na2HPO4-NaH2PO4 buffer, reaction-1
[15] = pH 7.0, Na2HPO4-NaH2PO4 buffer, reaction-2
[16] = pH 7.0, Na2HPO4-NaH2PO4 buffer, reaction-3
[17] = pH 7.0, Tris-HCl buffer, reaction-1
[18] = pH 7.0, Tris-HCl buffer, reaction-2
[19] = pH 7.0, Tris-HCl buffer, reaction-3
[20] = pH 8.0, Tris-HCl buffer, reaction-1
[21] = pH 8.0, Tris-HCl buffer, reaction-2
[22] = pH 8.0, Tris-HCl buffer, reaction-3
[23] = pH 9.0, Na2CO3-NaHCO3 buffer, reaction-1
[24] = pH 9.0, Na2CO3-NaHCO3 buffer, reaction-2
[25] = pH 9.0, Na2CO3-NaHCO3 buffer, reaction-3
[26] = pH 9.0, Tris-HCl buffer, reaction-1
[27] = pH 9.0, Tris-HCl buffer, reaction-2
[28] = pH 9.0, Tris-HCl buffer, reaction-3
[29] = pH 10.0, Na2CO3-NaHCO3 buffer, reaction-1
[30] = pH 10.0, Na2CO3-NaHCO3 buffer, reaction-2
[31] = pH 10.0, Na2CO3-NaHCO3 buffer, reaction-3
[32] = pH 11.0, Na2CO3-NaHCO3 buffer, reaction-1
[33] = pH 11.0, Na2CO3-NaHCO3 buffer, reaction-2
[34] = pH 11.0, Na2CO3-NaHCO3 buffer, reaction-3
[35] = pH 12.0, Na2CO3-NaHCO3 buffer, reaction-1
[36] = pH 12.0, Na2CO3-NaHCO3 buffer, reaction-2
[37] = pH 12.0, Na2CO3-NaHCO3 buffer, reaction-3

T1 sequence (A0A7G9P699 entry or part of it): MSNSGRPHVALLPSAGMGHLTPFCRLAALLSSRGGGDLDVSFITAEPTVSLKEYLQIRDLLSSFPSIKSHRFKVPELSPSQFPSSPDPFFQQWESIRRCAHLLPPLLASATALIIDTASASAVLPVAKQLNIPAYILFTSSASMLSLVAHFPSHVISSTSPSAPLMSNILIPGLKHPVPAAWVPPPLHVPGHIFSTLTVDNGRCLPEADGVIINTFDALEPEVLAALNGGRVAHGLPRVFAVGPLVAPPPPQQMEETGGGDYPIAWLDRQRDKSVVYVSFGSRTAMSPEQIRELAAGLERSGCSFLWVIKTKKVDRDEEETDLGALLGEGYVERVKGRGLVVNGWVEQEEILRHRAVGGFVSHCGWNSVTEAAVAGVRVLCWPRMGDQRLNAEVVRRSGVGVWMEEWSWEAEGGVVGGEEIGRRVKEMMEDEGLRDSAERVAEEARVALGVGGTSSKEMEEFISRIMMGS

`O=C(CCc1ccc(O)cc1)c1c(O)cc(O)cc1O` [Compound 17, phloretin] gave a relative activity (AbCGT [1]; [5]) of 0.2, a relative activity (AbCGT [1]; [6]) of 25.2 and a Kcat (AbCGT [2]) of 2 s⁻¹. For the same compound, the “conversion rates, O,N,S-glycosylation” value (AbCGT [3]) was 0%, the “conversion rates, di-C-glycosylation” value (AbCGT [3]) was 100% and the “conversion rates, mono-C-glycosylation” value (AbCGT [3]) was 0%. The “conversion rates of Phloretin” value (AbCGT [4]; Temperature 15, reaction-1) was 11, the relative activity (AbCGT [4]; Temperature 15, reaction-1) was 11.0 and the “conversion rates of Phloretin” value (AbCGT [4]; Temperature 15, reaction-2) was 10.9. For the same compound, the relative activity (AbCGT [4]; Temperature 15, reaction-2) was 10.9, the “conversion rates of Phloretin” value (AbCGT [4]; Temperature 15, reaction-3) was 12.9 and the relative activity (AbCGT [4]; Temperature 15, reaction-3) was 12.9. The “conversion rates of Phloretin” value (AbCGT [4]; Temperature 25, reaction-1) was 18.8, the relative activity (AbCGT [4]; Temperature 25, reaction-1) was 18.8 and the “conversion rates of Phloretin” value (AbCGT [4]; Temperature 25, reaction-2) was 21.4. For the same compound, the relative activity (AbCGT [4]; Temperature 25, reaction-2) was 21.4, the “conversion rates of Phloretin” value (AbCGT [4]; Temperature 25, reaction-3) was 24.7 and the relative activity (AbCGT [4]; Temperature 25, reaction-3) was 24.7. For the same compound, the “conversion rates of Phloretin” value (AbCGT [4]; Temperature 30, reaction-1) was 39.8, the relative activity (AbCGT [4]; Temperature 30, reaction-1) was 39.9 and the “conversion rates of Phloretin” value (AbCGT [4]; Temperature 30, reaction-2) was 36.9. For the same compound, the relative activity (AbCGT [4]; Temperature 30, reaction-2) was 37.0, the “conversion rates of Phloretin” value (AbCGT [4]; Temperature 30, reaction-3) was 38.5 and the relative activity (AbCGT [4]; Temperature 30, reaction-3) was 38.6. For the same compound, the “conversion rates of Phloretin” value (AbCGT [4]; Temperature 35, reaction-1) was 64.8, the relative activity (AbCGT [4]; Temperature 35, reaction-1) was 64.9 and the “conversion rates of Phloretin” value (AbCGT [4]; Temperature 35, reaction-2) was 57.8. For the same compound, the relative activity (AbCGT [4]; Temperature 35, reaction-2) was 57.9, the “conversion rates of Phloretin” value (AbCGT [4]; Temperature 35, reaction-3) was 60.7 and the relative activity (AbCGT [4]; Temperature 35, reaction-3) was 60.8. The “conversion rates of Phloretin” value (AbCGT [4]; Temperature 40, reaction-1) was 78.1, the relative activity (AbCGT [4]; Temperature 40, reaction-1) was 78.3 and the “conversion rates of Phloretin” value (AbCGT [4]; Temperature 40, reaction-2) was 81. For the same compound, the relative activity (AbCGT [4]; Temperature 40, reaction-2) was 81.2, the “conversion rates of Phloretin” value (AbCGT [4]; Temperature 40, reaction-3) was 73.2 and the relative activity (AbCGT [4]; Temperature 40, reaction-3) was 73.3. For the same compound, the “conversion rates of Phloretin” value (AbCGT [4]; Temperature 45, reaction-1) was 99.4, the relative activity (AbCGT [4]; Temperature 45, reaction-1) was 99.6 and the “conversion rates of Phloretin” value (AbCGT [4]; Temperature 45, reaction-2) was 100. For the same compound, the relative activity (AbCGT [4]; Temperature 45, reaction-2) was 100.2, the “conversion rates of Phloretin” value (AbCGT [4]; Temperature 45, reaction-3) was 100 and the relative activity (AbCGT [4]; Temperature 45, reaction-3) was 100.2. The “conversion rates of Phloretin” value (AbCGT [4]; Temperature 50, reaction-1) was 97.7, the relative activity (AbCGT [4]; Temperature 50, reaction-1) was 97.9 and the “conversion rates of Phloretin” value (AbCGT [4]; Temperature 50, reaction-2) was 98. The relative activity (AbCGT [4]; Temperature 50, reaction-2) was 98.2, the “conversion rates of Phloretin” value (AbCGT [4]; Temperature 50, reaction-3) was 99.1 and the relative activity (AbCGT [4]; Temperature 50, reaction-3) was 99.3. For the same compound, the “conversion rates of Phloretin” value (AbCGT [4]; Temperature 55, reaction-1) was 96.5, the relative activity (AbCGT [4]; Temperature 55, reaction-1) was 96.7 and the “conversion rates of Phloretin” value (AbCGT [4]; Temperature 55, reaction-2) was 95.7. The relative activity (AbCGT [4]; Temperature 55, reaction-2) was 95.9, the “conversion rates of Phloretin” value (AbCGT [4]; Temperature 55, reaction-3) was 93.3 and the relative activity (AbCGT [4]; Temperature 55, reaction-3) was 93.5. For the same compound, the “conversion rates of Phloretin” value (AbCGT [4]; Temperature 60, reaction-1) was 75.4, the relative activity (AbCGT [4]; Temperature 60, reaction-1) was 75.6 and the “conversion rates of Phloretin” value (AbCGT [4]; Temperature 60, reaction-2) was 85.7. The relative activity (AbCGT [4]; Temperature 60, reaction-2) was 85.9, the “conversion rates of Phloretin” value (AbCGT [4]; Temperature 60, reaction-3) was 80 and the relative activity (AbCGT [4]; Temperature 60, reaction-3) was 80.2. For the same compound, the “conversion rates of Phloretin” value (AbCGT [4]; [5]) was 0.2, the “conversion rates of Phloretin” value (AbCGT [4]; [7]) was 0.1 and the relative activity (AbCGT [4]; [7]) was 0.1. For the same compound, the “conversion rates of Phloretin” value (AbCGT [4]; [8]) was 0.2, the relative activity (AbCGT [4]; [8]) was 0.2 and the “conversion rates of Phloretin” value (AbCGT [4]; [9]) was 23.7. The relative activity (AbCGT [4]; [9]) was 23.8, the “conversion rates of Phloretin” value (AbCGT [4]; [6]) was 25.1 and the “conversion rates of Phloretin” value (AbCGT [4]; [10]) was 25.4. The relative activity (AbCGT [4]; [10]) was 25.5, the “conversion rates of Phloretin” value (AbCGT [4]; [11]) was 11.7 and the relative activity (AbCGT [4]; [11]) was 11.8. The “conversion rates of Phloretin” value (AbCGT [4]; [12]) was 15.2, the relative activity (AbCGT [4]; [12]) was 15.3 and the “conversion rates of Phloretin” value (AbCGT [4]; [13]) was 13. For the same compound, the relative activity (AbCGT [4]; [13]) was 13.1, the “conversion rates of Phloretin” value (AbCGT [4]; [14]) was 30.8 and the relative activity (AbCGT [4]; [14]) was 30.9. For the same compound, the “conversion rates of Phloretin” value (AbCGT [4]; [15]) was 28, the relative activity (AbCGT [4]; [15]) was 28.1 and the “conversion rates of Phloretin” value (AbCGT [4]; [16]) was 30.7. For the same compound, the relative activity (AbCGT [4]; [16]) was 30.8, the “conversion rates of Phloretin” value (AbCGT [4]; [17]) was 34.2 and the relative activity (AbCGT [4]; [17]) was 34.4. For the same compound, the “conversion rates of Phloretin” value (AbCGT [4]; [18]) was 33.6, the relative activity (AbCGT [4]; [18]) was 33.8 and the “conversion rates of Phloretin” value (AbCGT [4]; [19]) was 34.8. For the same compound, the relative activity (AbCGT [4]; [19]) was 35.0, the “conversion rates of Phloretin” value (AbCGT [4]; [20]) was 35 and the relative activity (AbCGT [4]; [20]) was 35.2. The “conversion rates of Phloretin” value (AbCGT [4]; [21]) was 36.1, the relative activity (AbCGT [4]; [21]) was 36.3 and the “conversion rates of Phloretin” value (AbCGT [4]; [22]) was 35.4. For the same compound, the relative activity (AbCGT [4]; [22]) was 35.6, the “conversion rates of Phloretin” value (AbCGT [4]; [23]) was 53 and the relative activity (AbCGT [4]; [23]) was 53.2. The “conversion rates of Phloretin” value (AbCGT [4]; [24]) was 52.2, the relative activity (AbCGT [4]; [24]) was 52.4 and the “conversion rates of Phloretin” value (AbCGT [4]; [25]) was 53.9. The relative activity (AbCGT [4]; [25]) was 54.2, the “conversion rates of Phloretin” value (AbCGT [4]; [26]) was 45.9 and the relative activity (AbCGT [4]; [26]) was 46.1. The “conversion rates of Phloretin” value (AbCGT [4]; [27]) was 46.5, the relative activity (AbCGT [4]; [27]) was 46.7 and the “conversion rates of Phloretin” value (AbCGT [4]; [28]) was 53. For the same compound, the relative activity (AbCGT [4]; [28]) was 53.2, the “conversion rates of Phloretin” value (AbCGT [4]; [29]) was 89.2 and the relative activity (AbCGT [4]; [29]) was 89.6. For the same compound, the “conversion rates of Phloretin” value (AbCGT [4]; [30]) was 93, the relative activity (AbCGT [4]; [30]) was 93.4 and the “conversion rates of Phloretin” value (AbCGT [4]; [31]) was 92.7. For the same compound, the relative activity (AbCGT [4]; [31]) was 93.1, the “conversion rates of Phloretin” value (AbCGT [4]; [32]) was 99.2 and the relative activity (AbCGT [4]; [32]) was 99.7. For the same compound, the “conversion rates of Phloretin” value (AbCGT [4]; [33]) was 100, the relative activity (AbCGT [4]; [33]) was 100.5 and the “conversion rates of Phloretin” value (AbCGT [4]; [34]) was 99.4. For the same compound, the relative activity (AbCGT [4]; [34]) was 99.9, the “conversion rates of Phloretin” value (AbCGT [4]; [35]) was 0 and the relative activity (AbCGT [4]; [35]) was 0.0. The “conversion rates of Phloretin” value (AbCGT [4]; [36]) was 0, the relative activity (AbCGT [4]; [36]) was 0.0 and the “conversion rates of Phloretin” value (AbCGT [4]; [37]) was 0. For the same compound, the relative activity (AbCGT [4]; [37]) was 0.0.

Source: article PMC7558026, “Exploring and applying the substrate promiscuity of a C-glycosyltransferase in the chemo-enzymatic synthesis of bioactive C-glycosides” (Nature Communications, 2020)
